IC50 data for 30 compounds are collected here from US20260049085A1, “CYCLIC COMPOUNDS AND METHODS OF USING SAME” (SCHRÖDINGER, INC., priority 2022, published 2026).

SMILES strings stand for the structures. A value given as a limit tells only on which side of the number the result lay.

Assay [1] addresses T1, full-length MALT1 protein His-MALT1(1-824) (Homo sapiens, UniProt Q9UDY8).
T1 construct: full-length MALT1 protein His-MALT1(1-824); His (N); made in house; host or cells: baculovirus-infected insect cells
T1 sequence (Q9UDY8 1-824): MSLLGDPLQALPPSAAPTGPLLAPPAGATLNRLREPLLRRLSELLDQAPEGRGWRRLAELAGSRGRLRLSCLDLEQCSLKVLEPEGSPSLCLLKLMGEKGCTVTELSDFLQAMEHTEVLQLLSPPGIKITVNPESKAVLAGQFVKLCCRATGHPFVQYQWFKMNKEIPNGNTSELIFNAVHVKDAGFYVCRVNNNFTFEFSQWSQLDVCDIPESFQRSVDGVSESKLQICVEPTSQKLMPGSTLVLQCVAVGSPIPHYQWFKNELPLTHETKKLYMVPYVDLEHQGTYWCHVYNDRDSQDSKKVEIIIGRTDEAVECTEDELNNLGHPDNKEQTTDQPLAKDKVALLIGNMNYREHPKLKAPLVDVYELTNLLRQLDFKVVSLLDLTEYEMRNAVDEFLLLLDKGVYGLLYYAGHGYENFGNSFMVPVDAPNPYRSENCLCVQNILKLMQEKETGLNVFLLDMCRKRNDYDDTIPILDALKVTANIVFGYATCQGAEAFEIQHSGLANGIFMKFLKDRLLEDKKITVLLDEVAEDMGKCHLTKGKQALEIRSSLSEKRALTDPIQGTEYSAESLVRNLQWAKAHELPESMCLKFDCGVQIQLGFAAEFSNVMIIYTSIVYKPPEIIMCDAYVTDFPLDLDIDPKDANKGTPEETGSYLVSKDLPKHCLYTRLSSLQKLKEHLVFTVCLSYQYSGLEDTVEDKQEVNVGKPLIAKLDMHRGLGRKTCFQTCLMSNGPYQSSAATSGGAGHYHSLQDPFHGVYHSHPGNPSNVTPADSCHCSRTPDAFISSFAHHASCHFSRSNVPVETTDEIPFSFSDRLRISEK
Briefly: MALT1 protease assay (Ac-LRSR-AMC tetrapeptide substrate, fluorescence). The conditions noted are these: 1 nM MALT1, 25 μM Ac-LRSR-AMC, 2 h pre-incubation, 8 hr incubation at RT. It counts as biochemical. Put shortly: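 Full-length His-MALT1(1-824) from baculovirus-infected insect cells (1 nM) was pre-incubated 2 h at RT with compounds (0.1% DMSO), then 25 μM Ac-LRSR-AMC added in 50 mM Tris pH 7.5, 600 mM sodium citrate, 1 mM DTT, 1 mM EDTA, 0.05% BSA. Fluorescence (ex 355/em 460 nm) read after 8 h at RT; IC50 by non-linear regression of % remaining activity.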

Assay [2] deals with IL10 secretion, OCI-LY10 cells. Briefly: Human IL10 secretion assay in OCI-LY10 cells (MSD). It counts as cell-based. As to conditions: 24 h incubation, relative to DMSO set as 100%, read-out: IL-10 Secretion IC50. As to the method:
IL10 is one of the cytokines that are regulated via activation of NF-kB signaling. For example, in ABC-DLBCL cell lines, the activated NF-kB signaling leads to increased IL10 secretion. Inhibition of NF-kB signaling has been shown leading to decreased IL10 secretion.
OCI-LY10 cells were seeded in IMEM supplemented with 20% fetal bovine serum at 4.8×10^5 cells per 160 μL per well in 96-well V-bottom cell culture plates (coming, 3894), treated with 120 nL of 3-fold serial compound dilutions, starting at 4 mM. The final vehicle concentration was 0.075% DMSO in all wells. After a 24 h incubation, human IL-10 pre-coated plates (Meso Scale Discovery) were washed 3 times with PBST, and 50 μL culture medium was aspirated into the MSD plate and incubated at 4° C. overnight. The supernatant was then discarded, and the wells were washed 3 times with PBST. SULFO-TAG Anti-human IL-10 Antibody (50×) was diluted 50-fold according to the Meso Scale Protocol, then 25 μL of SULFO-TAG Anti-human IL-10 Antibody (1×) was added. After 2 h of incubation at RT, the supernatant was discarded, and the well was washed 3 times with PBST. 2× read buffer was added and the signal was read on an MSD Sector S600. The effect of a particular compound on IL10 secretion is shown relative to the effect of DMSO; set as 100%. IC50 values (nM) were determined using 4-parametric curve-fitting.

As a reminder, the IC50 is the concentration at which inhibition is half-maximal.

As for `Cn1cc([C@@]2(C)C[C@H](C(=O)Nc3cnc(-n4nccn4)c(Cl)c3)c3cnc4cc(F)nn4c32)cn1` (single isomer, unassigned) [Example 1], the results for the IC50 in assay [1] and in assay [2] were < 10 nM and 100 to 1000 nM, respectively.
As for `Cn1cc([C@@]2(C)C[C@H](C(=O)Nc3cnc(-n4nccn4)c(C(F)(F)F)c3)c3cnc4cc(F)nn4c32)cn1` (single isomer, unassigned) [Example 5], the IC50 in assay [1] is < 10 nM; in assay [2], 10 to 100 nM.
Regarding `Cn1cc([C@@]2(C)C[C@H](C(=O)Nc3cnc(-n4nccn4)c(Cl)c3)c3cnc4cc(Cl)nn4c32)cn1` (single isomer, unassigned) [Example 8], the IC50 in assay [1] was < 10 nM; in assay [2], 10 to 100 nM.
Turning to `Cn1cc([C@@]2(C)C[C@H](C(=O)Nc3cnc(-n4nccn4)c(Cl)c3)c3cnc4c(F)c(F)nn4c32)cn1` (single isomer, unassigned) [Example 12], the half-maximal inhibitory concentration (IC50) was < 10 nM in assay [1] and 100 to 1000 nM in assay [2].
Take `CCn1cc([C@@]2(C)C[C@H](C(=O)Nc3cnc(-n4nccn4)c(Cl)c3)c3cnc4cc(F)nn4c32)cn1` (single isomer, unassigned) [Example 20]: the IC50 in assay [1] is < 10 nM; in assay [2] it was 10 to 100 nM.
On to `C[C@]1(c2cnn(C(F)F)c2)C[C@H](C(=O)Nc2cnc(-n3nccn3)c(Cl)c2)c2cnc3cc(F)nn3c21` (single isomer, unassigned) [Example 24], for which the IC50 was < 10 nM in assay [1] and 10 to 100 nM in assay [2].
The corresponding values for `C[C@]1(c2cnn(C3CC3)c2)C[C@H](C(=O)Nc2cnc(-n3nccn3)c(Cl)c2)c2cnc3cc(F)nn3c21` (single isomer, unassigned) [Example 28] are < 10 nM and 10 to 100 nM.
The corresponding values for `Cn1ccc([C@@]2(C)C[C@H](C(=O)Nc3cnc(-n4nccn4)c(Cl)c3)c3cnc4cc(F)nn4c32)n1` (single isomer, unassigned) [Example 32] are < 10 nM and 100 to 1000 nM.
For the compound `Cn1cc([C@@]2(C)C[C@H](C(=O)Nc3cnc(OC(F)F)c(C#N)c3)c3cnc4cc(F)nn4c32)cn1` (single isomer, unassigned) [Example 40], the IC50 in assay [1] was < 10 nM; in assay [2], 10 to 100 nM.
`Cn1ccc([C@@]2(C)C[C@H](C(=O)Nc3cnc(OC(F)F)c(C#N)c3)c3cnc4cc(F)nn4c32)n1` (single isomer, unassigned) [Example 68]: the IC50 in assay [1] was < 10 nM; in assay [2], 100 to 1000 nM.
Take `C[C@]1(c2cnn(C(F)F)n2)C[C@H](C(=O)Nc2cnc(-n3nccn3)c(Cl)c2)c2cnc3cc(F)nn3c21` (single isomer, unassigned) [Example 177]: in assay [1], the IC50 was < 10 nM.
Same read-out and setting: in the case of `C[C@@]1(c2cnn(C(F)F)n2)C[C@@H](C(=O)Nc2cnc(-n3nccn3)c(Cl)c2)c2cnc3cc(F)nn3c21` (single isomer, unassigned) [Example 178] it was 100 to 1000 nM; in that of `COc1cc(NC(=O)[C@H]2C[C@](C)(c3ccn(C(F)F)n3)c3c2cnc2cc(F)nn32)cnc1-c1ncccn1` (single isomer, unassigned) [Example 179], ≥ 1000 nM.
Turning to `COc1cc(NC(=O)[C@@H]2C[C@@](C)(c3ccn(C(F)F)n3)c3c2cnc2cc(F)nn32)cnc1-c1ncccn1` (single isomer, unassigned) [Example 180], the IC50 in assay [1] was in the range of 100 to 1000 nM.
As for `COc1cc(NC(=O)[C@H]2C[C@@](C)(c3ccn(C(F)F)n3)c3c2cnc2cc(F)nn32)cnc1-c1ncccn1` (single isomer, unassigned) [Example 181], in assay [1], the IC50 was ≥ 1000 nM.
For `COc1cc(NC(=O)[C@@H]2C[C@](C)(c3ccn(C(F)F)n3)c3c2cnc2cc(F)nn32)cnc1-c1ncccn1` (single isomer, unassigned) [Example 182], in assay [1], the IC50 was ≥ 1000 nM.
Regarding `Cc1cc(NC(=O)C2CC(C)(c3ccn(C(F)F)n3)c3c2cnc2cc(F)nn32)cnc1-c1ncccn1` (single isomer, unassigned) [Example 183], the half-maximal inhibitory concentration (IC50) in assay [1] is 10 to 100 nM.
On to `Cc1cc(NC(=O)C2CC(C)(c3ccn(C(F)F)n3)c3c2cnc2cc(F)nn32)cnc1-c1ncccn1` (single isomer, unassigned) [Example 184], for which, in assay [1], the IC50 was ≥ 1000 nM.
For `C[C@]1(c2ccn(C(F)F)n2)C[C@H](C(=O)Nc2ccc(-c3ncccn3)c(C(F)(F)F)c2)c2cnc3cc(F)nn3c21` (single isomer, unassigned) [Example 185], the IC50 in assay [1] was < 10 nM.
Take `C[C@@]1(c2ccn(C(F)F)n2)C[C@@H](C(=O)Nc2ccc(-c3ncccn3)c(C(F)(F)F)c2)c2cnc3cc(F)nn3c21` (single isomer, unassigned) [Example 186]: the IC50 in assay [1] was ≥ 1000 nM.
In turn, `C[C@@]1(c2ccn(C(F)F)n2)C[C@H](C(=O)Nc2ccc(-c3ncccn3)c(C(F)(F)F)c2)c2cnc3cc(F)nn3c21` (single isomer, unassigned) [Example 187] gave an IC50 in assay [1] of 10 to 100 nM.
`C[C@]1(c2ccn(C(F)F)n2)C[C@@H](C(=O)Nc2ccc(-c3ncccn3)c(C(F)(F)F)c2)c2cnc3cc(F)nn3c21` (single isomer, unassigned) [Example 188] came in with an IC50 in assay [1] of 100 to 1000 nM.
For the compound `C[C@]1(c2ccn(C(F)F)n2)C[C@H](C(=O)Nc2ccc(-c3ncccn3)c(Cl)c2)c2cnc3cc(F)nn3c21` (single isomer, unassigned) [Example 189], in assay [1], the IC50 is 10 to 100 nM.
As to `C[C@@]1(c2ccn(C(F)F)n2)C[C@@H](C(=O)Nc2ccc(-c3ncccn3)c(Cl)c2)c2cnc3cc(F)nn3c21` (single isomer, unassigned) [Example 190], in assay [1], the IC50 was ≥ 1000 nM.
Regarding `C[C@@]1(c2ccn(C(F)F)n2)C[C@H](C(=O)Nc2ccc(-c3ncccn3)c(Cl)c2)c2cnc3cc(F)nn3c21` (single isomer, unassigned) [Example 191], the half-maximal inhibitory concentration (IC50) in assay [1] was ≥ 1000 nM.
The same measure, in the same setting: in the case of `C[C@]1(c2ccn(C(F)F)n2)C[C@@H](C(=O)Nc2ccc(-c3ncccn3)c(Cl)c2)c2cnc3cc(F)nn3c21` (single isomer, unassigned) [Example 192] it was 100 to 1000 nM.
Same read-out and setting: in the case of `CC1(c2ccn(C(F)F)n2)CC(C(=O)Nc2cnc(-c3ncccn3)c(C(F)F)c2)c2cnc3cc(F)nn3c21` (single isomer, unassigned) [Example 193] it was 10 to 100 nM; in that of `CC1(c2ccn(C(F)F)n2)CC(C(=O)Nc2cnc(-c3ncccn3)c(C(F)F)c2)c2cnc3cc(F)nn3c21` (single isomer, unassigned) [Example 194], ≥ 1000 nM; in that of `C[C@]1(c2cnn(C(F)F)c2)C[C@H](C(=O)Nc2cnc(-c3ncc(F)cn3)c(C(F)(F)F)c2)c2cnc3cc(F)nn3c21` [Example 132, (6S,8R)-8-(1-(difluoromethyl)-1H-pyrazol-4-yl)-2-fluoro-N-(6-(5-fluoropyrimidin-2-yl)-5-(trifluoromethyl)pyridin-3-yl)-8-methyl-7,8-dihydro-6H-cyclopenta[e]pyrazolo[1,5-a]pyrimidine-6-carboxamide], 10 to 100 nM.
Compound `C[C@]1(c2cnn(C(F)F)c2)C[C@H](C(=O)Nc2cnc(-c3ncc(F)cn3)c(Cl)c2)c2cnc3cc(F)nn3c21` [Example 134, (6S,8R)—N-(5-chloro-6-(5-fluoropyrimidin-2-yl)pyridin-3-yl)-8-(1-(difluoromethyl)-1H-pyrazol-4-yl)-2-fluoro-8-methyl-7,8-dihydro-6H-cyclopenta[e]pyrazolo[1,5-a]pyrimidine-6-carboxamide] displayed an IC50 in assay [1] of 10 to 100 nM.
